Source: ChEMBL document CHEMBL1153114, “Discovery of orally available integrin alpha5beta1 antagonists” (Bioorg Med Chem Lett, 2010)

Columns and labels:
[1] = target: Integrin alpha-5/beta-1 (Homo sapiens, UniProt P05556+P08648); experiment: Binding affinity to integrin alpha5beta1 receptor by ELISA; type: protein-complex assay
[2] = target: Integrin alpha-V/beta-5 (Homo sapiens, UniProt P06756+P18084); experiment: Binding affinity to integrin […] receptor by ELISA; type: protein-complex assay
[3] = target: Integrin alpha-V/beta-3 (Homo sapiens, UniProt P05106+P06756); experiment: Binding affinity to integrin […] receptor by ELISA; type: protein-complex assay
[4] = target: Integrin alpha-IIb/beta-3 (Homo sapiens, UniProt P05106+P08514); experiment: Binding affinity to integrin alpha2bbeta3 receptor by ELISA; type: protein-complex assay
[5] = Clearance in Wistar rat at 1 mg/kg, iv; type: ADME, organism-based; parameters: dose 1 mg/kg, route intravenous; settings: in vivo
[6] = tested on: Rattus norvegicus; experiment: (§1) Terminal half life in Clearance in Wistar rat at 1 mg/kg, iv; type: ADME, organism-based; parameters: dose 1 mg/kg, route intravenous; settings: in vivo
[7] = Oral bioavailability in Wistar rat at 10 mg/kg; type: ADME, organism-based; settings: in vivo
[8] = as §1; type: ADME, organism-based; parameters: dose 1 mg/kg, route intravenous; settings: Wistar, in vivo, read-out: beta t1/2

Chain of Integrin alpha-V/beta-3 (P05106 27-788 limits assumed): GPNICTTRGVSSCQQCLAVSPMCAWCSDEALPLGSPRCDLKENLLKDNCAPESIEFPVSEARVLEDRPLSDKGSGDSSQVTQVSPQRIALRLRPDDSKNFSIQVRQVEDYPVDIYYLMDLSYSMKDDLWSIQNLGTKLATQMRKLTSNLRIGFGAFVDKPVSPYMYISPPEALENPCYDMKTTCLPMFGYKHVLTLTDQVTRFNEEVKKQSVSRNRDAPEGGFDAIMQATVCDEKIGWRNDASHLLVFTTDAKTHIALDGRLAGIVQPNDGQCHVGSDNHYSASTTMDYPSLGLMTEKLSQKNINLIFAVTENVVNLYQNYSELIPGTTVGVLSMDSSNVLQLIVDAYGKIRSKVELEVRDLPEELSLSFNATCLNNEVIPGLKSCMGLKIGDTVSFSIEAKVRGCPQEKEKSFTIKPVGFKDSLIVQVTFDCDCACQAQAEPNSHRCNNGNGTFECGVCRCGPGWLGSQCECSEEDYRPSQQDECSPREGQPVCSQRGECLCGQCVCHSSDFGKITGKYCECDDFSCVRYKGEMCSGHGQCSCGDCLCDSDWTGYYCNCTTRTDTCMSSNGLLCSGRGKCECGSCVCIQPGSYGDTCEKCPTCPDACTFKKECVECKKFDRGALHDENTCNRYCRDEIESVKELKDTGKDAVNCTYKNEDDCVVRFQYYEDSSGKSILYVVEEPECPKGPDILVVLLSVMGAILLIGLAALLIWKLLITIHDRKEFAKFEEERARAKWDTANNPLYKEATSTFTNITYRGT
Chain of Integrin alpha-V/beta-3 (P06756 31-889 limits assumed): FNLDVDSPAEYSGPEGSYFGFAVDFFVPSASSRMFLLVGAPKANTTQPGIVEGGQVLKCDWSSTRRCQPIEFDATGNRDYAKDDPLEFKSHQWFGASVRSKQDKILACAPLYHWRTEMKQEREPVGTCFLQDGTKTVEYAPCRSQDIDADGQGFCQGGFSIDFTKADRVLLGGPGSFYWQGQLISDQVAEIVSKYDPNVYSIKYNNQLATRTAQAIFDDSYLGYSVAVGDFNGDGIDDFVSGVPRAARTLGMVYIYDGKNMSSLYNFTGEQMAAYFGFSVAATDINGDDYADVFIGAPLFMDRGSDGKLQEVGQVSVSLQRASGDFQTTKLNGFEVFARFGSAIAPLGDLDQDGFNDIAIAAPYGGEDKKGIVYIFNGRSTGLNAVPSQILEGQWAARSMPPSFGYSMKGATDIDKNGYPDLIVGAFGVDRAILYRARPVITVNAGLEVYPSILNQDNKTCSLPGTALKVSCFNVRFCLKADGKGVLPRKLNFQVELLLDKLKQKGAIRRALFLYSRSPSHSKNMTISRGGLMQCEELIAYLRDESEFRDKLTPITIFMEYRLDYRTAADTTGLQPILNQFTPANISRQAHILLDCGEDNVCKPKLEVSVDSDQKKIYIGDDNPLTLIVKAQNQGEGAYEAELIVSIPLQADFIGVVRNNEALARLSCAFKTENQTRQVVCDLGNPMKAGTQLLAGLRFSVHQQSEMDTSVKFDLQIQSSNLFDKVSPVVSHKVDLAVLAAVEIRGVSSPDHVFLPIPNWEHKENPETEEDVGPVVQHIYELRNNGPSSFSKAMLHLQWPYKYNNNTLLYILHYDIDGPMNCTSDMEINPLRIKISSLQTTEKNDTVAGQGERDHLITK
Chain of Integrin alpha-V/beta-3 (P06756 891-1048 limits assumed): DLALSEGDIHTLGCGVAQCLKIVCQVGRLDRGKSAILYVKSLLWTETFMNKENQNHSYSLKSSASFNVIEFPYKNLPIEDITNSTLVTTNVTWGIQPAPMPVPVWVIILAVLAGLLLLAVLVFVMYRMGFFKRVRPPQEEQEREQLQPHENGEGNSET
Chain of Integrin alpha-IIb/beta-3 (P05106 27-788 limits assumed): as the sequence (P05106 27-788 limits assumed) above
Chain of Integrin alpha-IIb/beta-3 (P08514 32-887 limits assumed): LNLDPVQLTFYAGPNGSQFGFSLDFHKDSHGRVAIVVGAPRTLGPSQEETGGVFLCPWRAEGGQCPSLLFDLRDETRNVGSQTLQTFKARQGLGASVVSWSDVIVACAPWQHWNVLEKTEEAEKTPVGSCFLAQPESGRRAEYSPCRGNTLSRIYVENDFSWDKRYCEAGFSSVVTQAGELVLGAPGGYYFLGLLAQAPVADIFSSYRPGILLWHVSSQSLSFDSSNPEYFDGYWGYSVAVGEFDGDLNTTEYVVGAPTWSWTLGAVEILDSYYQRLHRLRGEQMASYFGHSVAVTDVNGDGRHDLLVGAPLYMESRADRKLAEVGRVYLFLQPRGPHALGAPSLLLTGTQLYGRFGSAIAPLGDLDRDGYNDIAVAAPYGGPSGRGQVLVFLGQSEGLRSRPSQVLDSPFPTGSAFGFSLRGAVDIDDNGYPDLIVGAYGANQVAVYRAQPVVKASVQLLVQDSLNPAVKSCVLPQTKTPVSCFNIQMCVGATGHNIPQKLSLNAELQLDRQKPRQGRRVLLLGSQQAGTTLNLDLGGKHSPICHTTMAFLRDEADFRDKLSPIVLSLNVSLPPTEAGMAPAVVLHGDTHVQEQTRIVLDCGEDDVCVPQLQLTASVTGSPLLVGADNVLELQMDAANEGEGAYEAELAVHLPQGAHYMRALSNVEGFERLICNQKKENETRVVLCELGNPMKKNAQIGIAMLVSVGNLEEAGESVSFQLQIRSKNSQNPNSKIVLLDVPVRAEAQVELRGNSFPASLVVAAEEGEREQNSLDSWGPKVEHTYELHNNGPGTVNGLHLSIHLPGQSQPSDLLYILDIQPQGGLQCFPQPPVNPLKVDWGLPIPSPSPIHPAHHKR
Chain of Integrin alpha-IIb/beta-3 (P08514 891-1039 limits assumed): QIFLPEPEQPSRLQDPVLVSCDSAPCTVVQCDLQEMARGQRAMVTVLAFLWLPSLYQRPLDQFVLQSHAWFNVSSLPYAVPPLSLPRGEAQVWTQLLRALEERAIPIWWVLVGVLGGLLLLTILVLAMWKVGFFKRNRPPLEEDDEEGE
Chain of Integrin alpha-5/beta-1 (P05556 21-798 limits assumed): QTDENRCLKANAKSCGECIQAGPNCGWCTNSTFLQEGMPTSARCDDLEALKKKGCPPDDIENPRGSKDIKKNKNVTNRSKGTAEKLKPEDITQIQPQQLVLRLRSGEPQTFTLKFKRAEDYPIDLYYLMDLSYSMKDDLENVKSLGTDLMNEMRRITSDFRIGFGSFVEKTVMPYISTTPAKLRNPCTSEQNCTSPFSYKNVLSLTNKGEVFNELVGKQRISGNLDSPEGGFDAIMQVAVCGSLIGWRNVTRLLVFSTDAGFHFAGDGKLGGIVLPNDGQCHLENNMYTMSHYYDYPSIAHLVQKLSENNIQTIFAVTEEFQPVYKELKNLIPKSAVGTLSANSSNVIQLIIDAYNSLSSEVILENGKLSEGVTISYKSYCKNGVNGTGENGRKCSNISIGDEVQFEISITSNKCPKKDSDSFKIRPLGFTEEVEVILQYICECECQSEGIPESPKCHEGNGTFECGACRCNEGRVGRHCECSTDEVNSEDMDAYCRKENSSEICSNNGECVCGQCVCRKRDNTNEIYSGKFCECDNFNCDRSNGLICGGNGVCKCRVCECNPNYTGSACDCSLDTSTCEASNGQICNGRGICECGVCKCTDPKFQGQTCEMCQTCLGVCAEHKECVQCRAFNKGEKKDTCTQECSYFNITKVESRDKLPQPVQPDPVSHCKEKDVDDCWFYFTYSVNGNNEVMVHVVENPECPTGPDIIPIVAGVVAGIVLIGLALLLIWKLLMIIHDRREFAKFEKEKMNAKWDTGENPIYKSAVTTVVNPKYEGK
Chain of Integrin alpha-5/beta-1 (P08648 42-894 limits assumed): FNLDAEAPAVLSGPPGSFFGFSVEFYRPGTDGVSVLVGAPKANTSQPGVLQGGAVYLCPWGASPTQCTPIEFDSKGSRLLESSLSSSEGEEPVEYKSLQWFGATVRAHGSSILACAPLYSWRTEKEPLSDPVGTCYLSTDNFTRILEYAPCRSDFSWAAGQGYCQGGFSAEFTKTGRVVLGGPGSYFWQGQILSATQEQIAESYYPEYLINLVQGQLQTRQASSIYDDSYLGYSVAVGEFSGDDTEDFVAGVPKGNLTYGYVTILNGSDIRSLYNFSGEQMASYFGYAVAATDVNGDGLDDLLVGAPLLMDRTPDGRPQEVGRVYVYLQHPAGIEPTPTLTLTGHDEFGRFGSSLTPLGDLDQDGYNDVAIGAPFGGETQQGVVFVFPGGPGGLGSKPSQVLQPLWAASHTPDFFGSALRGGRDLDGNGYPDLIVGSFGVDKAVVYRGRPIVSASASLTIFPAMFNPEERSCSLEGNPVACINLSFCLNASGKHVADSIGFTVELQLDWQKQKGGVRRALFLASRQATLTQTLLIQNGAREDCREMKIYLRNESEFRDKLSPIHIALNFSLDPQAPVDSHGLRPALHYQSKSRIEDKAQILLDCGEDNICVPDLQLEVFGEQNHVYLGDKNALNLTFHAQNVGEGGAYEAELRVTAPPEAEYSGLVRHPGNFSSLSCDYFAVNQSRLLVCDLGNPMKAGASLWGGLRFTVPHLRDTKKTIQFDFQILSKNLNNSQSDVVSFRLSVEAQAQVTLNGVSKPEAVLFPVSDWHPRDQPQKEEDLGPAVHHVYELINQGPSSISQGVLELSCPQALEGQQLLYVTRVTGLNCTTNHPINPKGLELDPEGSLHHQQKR
Chain of Integrin alpha-5/beta-1 (P08648 895-1049 limits assumed): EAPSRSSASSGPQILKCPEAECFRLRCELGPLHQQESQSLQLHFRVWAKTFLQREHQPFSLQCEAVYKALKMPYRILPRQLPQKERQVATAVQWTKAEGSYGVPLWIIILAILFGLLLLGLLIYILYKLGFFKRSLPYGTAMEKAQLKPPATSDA

Row | Structure (SMILES) | IC50 [1] | IC50 [2] | IC50 [3] | IC50 [4] | clearance [5] | beta t1/2 [6] | bioavailability [7] | half-life [8]
1 | Cc1ccnc(NCc2csc(-c3ccc(C[C@H](NC(=O)c4c(C)cc(C)cc4C)C(=O)O)cc3)c2)c1 | 46 nM | 3570 nM | 1730 nM | 97000 nM |  |  |  | 
2 | Cc1ccnc(NCc2ccc(-c3ccc(CC(NC(=O)c4c(C)cc(C)cc4C)C(=O)O)cc3)cc2)c1 (racemic) | 65 nM | > 20 nM | 2920 nM | 165000 nM |  |  |  | 
3 | Cc1ccnc(NCc2cnc(-c3ccc(C[C@H](NC(=O)c4c(C)cc(C)cc4C)C(=O)O)cc3)s2)c1 | 13 nM | 502 nM | 472 nM | 150000 nM |  |  |  | 
4 | Cc1ccnc(NCC2CC(=O)N(c3ccc(C[C@H](NC(=O)c4c(C)cc(C)cc4C)C(=O)O)cc3)C2)c1 (some centres undefined) | 1.6 nM | 1340 nM | 319 nM |  |  |  |  | 
5 | Cc1cc(C)c(C(=O)N[C@@H](Cc2ccc(OCCCNc3ccccn3)cc2)C(=O)O)c(C)c1 | 2.5 nM |  | 703 nM |  |  |  |  | 
6 | Cc1ccnc(NCc2sccc2-c2ccc(C[C@H](NC(=O)c3c(C)cc(C)cc3C)C(=O)O)cc2)c1 | 887 nM | 17000 nM | 16000 nM | 77000 nM |  |  |  | 
7 | Cc1ccnc(NCc2cccc(-c3ccc(CC(NC(=O)c4c(C)cc(C)cc4C)C(=O)O)cc3)c2)c1 (racemic) | 87 nM | > 20000 nM | 890 nM | 180000 nM |  |  |  | 
8 | Cc1ccnc(NCC2CCN(c3ccc(CC(NC(=O)c4c(C)cc(C)cc4C)C(=O)O)cc3)CC2)c1 (racemic) | 2.3 nM | 11000 nM | 84 nM | 23000 nM | 70 mL/min/kg | 1.1 h | 16% | 
9 | Cc1cc(C)c(C(=O)N[C@@H](CNC(=O)CO[C@H]2C[C@H](CNc3ccccn3)N(C(=O)CC(C)(C)C)C2)C(=O)O)c(C)c1 | 1.6 nM | 90700 nM | 16000 nM | > 50000 nM |  |  |  | 
10 | Cc1ccnc(NCc2coc(-c3ccc(C[C@H](NC(=O)c4c(C)cc(C)cc4C)C(=O)O)cc3)c2)c1 | 79 nM | 2480 nM | 2420 nM | 52000 nM | 17 mL/min/kg |  | 26% | 1.47 h
11 | Cc1ccnc(NCc2cn(-c3ccc(C[C@H](NC(=O)c4c(C)cc(C)cc4C)C(=O)O)cc3)nn2)c1 | 1.5 nM | 347 nM | 100 nM | 89000 nM |  |  |  | 
12 | Cc1ccnc(NCc2cc(-c3ccc(C[C@H](NC(=O)c4c(C)cc(C)cc4C)C(=O)O)cc3)on2)c1 | 6.1 nM | 257 nM | 261 nM | 118000 nM | 9 mL/min/kg |  | 11% | 2.3 h
